Measurements reported in ChEMBL document CHEMBL1201862, “PubChem BioAssay data set” (2004).
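Dose response: 5 concentrations. Exposure: 48 h. Format: 96-well plates. Endpoint: linear interpolation; highest concentration if not reached. GI50 marks 50% less growth.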 Active and inactive are the calls of the source. Cut-off read from the data, not from the text of the source: active = GI50 up to about 1.1 µM and inactive = higher.

Legend:
Test in all cases: inhibition of tumour cell growth, NCI panel, 48 h
[1] = system: HL-60
[2] = system: Malme-3M
[3] = system: SNB-75
[4] = system: OVCAR-5
[5] = system: SK-OV-3
[6] = system: SK-MEL-5
[7] = system: NCI-H226
[8] = system: SF-268
[9] = system: SK-MEL-2
[10] = system: IGROV-1
[11] = system: PC-3
[12] = system: SR
[13] = system: NCI-H522
[14] = system: UO-31
[15] = system: SNB-19
[16] = system: HCT-116
[17] = system: CAKI-1
[18] = system: TK-10
[19] = system: HCT-15
[20] = system: RXF 393

Structure (SMILES): CN(Cc1cnc2nc(N)nc(N)c2n1)c1ccc(C(=O)NC(CCC(=O)NCCC(P(=O)(O)O)P(=O)(O)O)C(=O)O)cc1 (stereo not given)
- GI50 [1]: 4.12 µM (inactive)
- GI50 [2]: > 35.8 µM (inactive)
- GI50 [3]: > 100 µM (inactive)
- GI50 [4]: 25.1 µM (inactive)
- GI50 [5]: 1.13 µM (inactive)
- GI50 [6]: 43.4 µM (inactive)
- GI50 [7]: > 89.7 µM (inactive)
- GI50 [8]: 14.2 µM (inactive)
- GI50 [9]: > 49.5 µM (inactive)
- GI50 [10]: 35.2 µM (inactive)
- GI50 [11]: 1.79 µM (inactive)
- GI50 [12]: 3.17 µM (inactive)
- GI50 [13]: > 88.3 µM (inactive)
- GI50 [14]: 22 µM (inactive)
- GI50 [15]: > 87.7 µM (inactive)
- GI50 [16]: 3.67 µM (inactive)
- GI50 [17]: > 25 µM (inactive)
- GI50 [18]: > 100 µM (inactive)
- GI50 [19]: 6.67 µM
- GI50 [20]: > 100 µM (inactive)
